Laboratory results: publication PMC10952572, “Improved PIEZO1 agonism through 4‐benzoic acid modification of Yoda1” (British Journal of Pharmacology, 2023)

Legend:
[1] = target: T1, hPIEZO1 (Homo sapiens, UniProt Q92508); experiment: Intracellular Ca2+ measurement (Fura-2) in hPIEZO1-TREx cells; assay type: cell-based; details: for Peak ΔCa2+i (ΔF340/380), median fold difference compared to Yoda1: 10 μM compound, hPIEZO1-TREx cells, paired with 10 μM Yoda1; for Ability to evoke intracellular Ca2+ elevation: 10 μM, cells overexpressing hPIEZO1, compared with Yoda1
T1 construct: expressed in transfected cells
T1 sequence (Q92508 whole entry): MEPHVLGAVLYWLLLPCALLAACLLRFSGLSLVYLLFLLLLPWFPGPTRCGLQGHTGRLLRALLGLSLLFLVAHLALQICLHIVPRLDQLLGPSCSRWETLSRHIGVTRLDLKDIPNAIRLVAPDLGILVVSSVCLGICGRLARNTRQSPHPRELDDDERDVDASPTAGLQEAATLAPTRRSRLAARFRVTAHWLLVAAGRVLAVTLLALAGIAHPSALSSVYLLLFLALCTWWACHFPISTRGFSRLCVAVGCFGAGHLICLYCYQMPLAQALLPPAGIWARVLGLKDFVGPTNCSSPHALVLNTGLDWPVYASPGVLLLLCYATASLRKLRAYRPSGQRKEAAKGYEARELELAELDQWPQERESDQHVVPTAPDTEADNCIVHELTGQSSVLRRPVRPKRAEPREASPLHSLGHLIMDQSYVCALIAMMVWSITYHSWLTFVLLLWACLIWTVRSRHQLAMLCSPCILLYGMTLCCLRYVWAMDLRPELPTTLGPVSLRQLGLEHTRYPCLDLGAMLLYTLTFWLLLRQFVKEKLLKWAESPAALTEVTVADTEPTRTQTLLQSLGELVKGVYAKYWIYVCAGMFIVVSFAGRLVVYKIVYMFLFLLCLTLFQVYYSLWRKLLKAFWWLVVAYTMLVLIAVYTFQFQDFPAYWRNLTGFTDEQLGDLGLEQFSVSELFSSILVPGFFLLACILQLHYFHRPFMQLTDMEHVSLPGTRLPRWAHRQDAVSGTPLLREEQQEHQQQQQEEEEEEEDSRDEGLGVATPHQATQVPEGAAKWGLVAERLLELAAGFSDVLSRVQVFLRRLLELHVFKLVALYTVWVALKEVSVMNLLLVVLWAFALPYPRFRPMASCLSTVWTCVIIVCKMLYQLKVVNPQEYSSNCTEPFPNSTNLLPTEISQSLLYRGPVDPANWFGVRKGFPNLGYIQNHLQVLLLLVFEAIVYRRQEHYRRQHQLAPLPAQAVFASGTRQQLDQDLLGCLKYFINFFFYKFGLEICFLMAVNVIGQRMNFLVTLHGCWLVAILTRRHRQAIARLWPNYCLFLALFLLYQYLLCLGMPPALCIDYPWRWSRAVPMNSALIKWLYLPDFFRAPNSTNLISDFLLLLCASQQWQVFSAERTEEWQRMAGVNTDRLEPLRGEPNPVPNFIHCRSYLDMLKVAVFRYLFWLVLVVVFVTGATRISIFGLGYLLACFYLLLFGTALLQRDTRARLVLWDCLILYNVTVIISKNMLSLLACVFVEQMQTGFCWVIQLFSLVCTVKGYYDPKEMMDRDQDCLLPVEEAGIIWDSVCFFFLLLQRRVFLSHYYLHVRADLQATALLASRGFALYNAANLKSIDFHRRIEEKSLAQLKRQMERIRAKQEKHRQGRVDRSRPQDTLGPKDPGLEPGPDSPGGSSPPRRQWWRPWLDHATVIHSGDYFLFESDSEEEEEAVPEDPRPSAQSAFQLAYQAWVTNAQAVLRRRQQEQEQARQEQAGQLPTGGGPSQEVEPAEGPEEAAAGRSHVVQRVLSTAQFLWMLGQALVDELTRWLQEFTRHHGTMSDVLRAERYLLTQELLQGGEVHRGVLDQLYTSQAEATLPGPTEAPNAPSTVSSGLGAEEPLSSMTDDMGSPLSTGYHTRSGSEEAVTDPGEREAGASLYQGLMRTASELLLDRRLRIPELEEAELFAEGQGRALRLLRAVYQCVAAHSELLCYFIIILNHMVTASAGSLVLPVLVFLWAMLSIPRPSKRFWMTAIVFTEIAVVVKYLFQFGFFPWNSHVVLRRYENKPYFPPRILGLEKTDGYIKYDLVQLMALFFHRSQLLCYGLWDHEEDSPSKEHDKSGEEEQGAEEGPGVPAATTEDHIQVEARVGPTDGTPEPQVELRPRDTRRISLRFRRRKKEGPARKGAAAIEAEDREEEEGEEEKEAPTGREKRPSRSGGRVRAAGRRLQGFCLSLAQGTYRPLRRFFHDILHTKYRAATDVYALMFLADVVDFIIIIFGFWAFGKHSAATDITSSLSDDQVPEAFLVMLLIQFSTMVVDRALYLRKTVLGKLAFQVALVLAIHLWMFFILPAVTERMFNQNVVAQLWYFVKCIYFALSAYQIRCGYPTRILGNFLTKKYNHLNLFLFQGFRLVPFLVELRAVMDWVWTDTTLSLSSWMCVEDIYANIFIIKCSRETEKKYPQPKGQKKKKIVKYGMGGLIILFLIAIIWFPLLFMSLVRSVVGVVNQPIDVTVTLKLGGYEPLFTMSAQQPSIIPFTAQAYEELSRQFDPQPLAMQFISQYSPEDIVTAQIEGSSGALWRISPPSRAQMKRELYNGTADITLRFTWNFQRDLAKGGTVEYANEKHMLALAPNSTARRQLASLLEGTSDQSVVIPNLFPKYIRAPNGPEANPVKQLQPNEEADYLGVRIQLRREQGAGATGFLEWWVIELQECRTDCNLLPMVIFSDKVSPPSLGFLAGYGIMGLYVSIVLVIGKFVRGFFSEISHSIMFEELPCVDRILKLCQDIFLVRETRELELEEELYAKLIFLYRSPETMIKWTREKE
From the text: HEK T‐REx™ 293 cells (Thermo Fisher Cat #R71007, RRID:CVCL_D585) that overexpress hPIEZO1 upon induction with tetracycline were generated as previously described (Rode et al., [2017]). PIEZO1‐GFP was used as a PCR template to clone hPIEZO1 coding sequence into pcDNA™4/TO between HindIII and EcoRI restriction sites. PIEZO1 was amplified as two fragments using the following primers: (HindIII‐PIEZO1‐Fw: […] and BamHI‐Int.PIEZO1‐Rv: […]) and (BamHI‐Int. PIEZO1‐Fw: […] and EcoRI‐PIEZO1‐Rv: […]). The two fragments were fused using BamHI restriction site, resulting in the full‐length PIEZO1 coding sequence with the c4182a silent mutation. HEK T‐REx™ 293 cells (Invitrogen) were transfected with pcDNA4/TO‐PIEZO1 using Lipofectamine 2000 (Thermo Fisher Scientific). Subsequently, cells were treated with 10 μg·ml^−1 blasticidin and 200 μg·ml^−1 zeocin (InvivoGen) to select stably transfected cells. Single‐cell clones were isolated and analysed individually. Expression was induced by treating the cells for 24 h with 10 ng·ml^−1 tetracycline and analysed by quantitative RT‐PCR and Western blot. These cells are referred to as hPIEZO1‐TREx.
(§1) HEK 293‐TREx cells and their stably transfected derivatives or transiently transfected HEK 293 or HeLa cells were seeded at a density of 7.5 × 10^4 cells per well into poly‐D‐lysine‐coated 96‐well plates. The plates were either commercially pre‐coated with poly‐D‐lysine (Greiner Bio‐One #655946) or (Greiner Bio‐One #655090) were coated in‐house with 35 μl of a 10 μg·ml^−1 poly‐D‐lysine (Bio‐Techne, Cultrex # 3439‐100‐01) in sterile deionised water per well for at least 24 h and rinsed three times with 100 μl per well sterile D‐PBS before addition of cells. HUVECs were seeded into tissue culture‐treated 96‐well plates (Greiner Bio‐One #655090) at a density of either 2.5 × 10^4 cells 24 h before experimentation or 1.25 × 10^4 cells 48 h before experimentation. Cells were incubated with 2 μM Fura‐2‐AM (Molecular Probes™) in the presence of 0.01% (wt./vol.) pluronic F127 (Sigma‐Aldrich #P2443) in standard bath solution (SBS) for 1 h at 37°C. Cells were washed with SBS for 30 min at room temperature. Alternatively, if inhibitors were being tested, these were added at this time, immediately following a wash in SBS. (−)‐Englerin A (Akbulut et al., [2015]) was used in SBS containing 0.01% pluronic acid as a dispersing agent to minimise aggregation of compound. Unless otherwise stated, the final concentration of DMSO was 0.2% (vol./vol). Working 2000× stock solutions of test compounds were freshly made in DMSO and diluted 1000‐fold in SBS during the 30 min SBS wash/inhibitor pre‐incubation period to obtain 2× solutions for injection. When testing the highest concentration of Yoda1, KC159 and KC289 (30 μM), the final DMSO concentration was 0.6% (vol./vol.). Measurements were made at room temperature on a 96‐well fluorescence plate reader (FlexStation 3, Molecular Devices, Sunnyvale, CA, USA) controlled by SoftMax Pro software v7.0.3. Recipient wells containing 80 μl SBS/0.2% (vol./vol.) DMSO vehicle or inhibitor compound received 80 μl 2× compound at an injection rate of 1 μl·s^−1, and the pipette introduced liquids from a height setting of 70 μl. No trituration was performed. For recordings using Fura‐2, the change in intracellular Ca was indicated as the ratio of Fura‐2 emission (510 nm) intensities at 340 and 380 nm excitation. Photomultipliers were set to medium sensitivity. SBS contained 130 mM NaCl, 5 mM KCl, 8 mM D‐glucose, 10 mM HEPES, 1.2 mM MgCl2 and 1.5 mM CaCl2, and the pH was adjusted to 7.4 with NaOH. The solution was filtered through a 0.2 μm bottle‐top filter prior to use and handled aseptically thereafter.
For intracellular Ca^2+ (Ca^2+i) measurements, technical intra‐experiment replicates were used to improve confidence in the data. Analysis of individual experiments was performed to obtain mean ± SEM values. […]

[2] = Stability in plasma; assay type: in vitro ADME; details: mouse plasma, 1 μM, over 2 h
Protocol: Pooled heparinised mouse plasma was warmed to 37°C for 10 min, mixed and cleared of aggregated protein by centrifugation. Aliquots of the clear supernatant were transferred into the assay plate. Following equilibration to 37°C, biotransformation was initiated by adding and mixing of 1 μM compound solution in a final incubation volume of 300 μl; 25 μl aliquots were removed at 0, 5, 15, 30, 60 and 120 min and quenched in 300 μl ice‐cold acetonitrile containing internal standard. After storing the samples at −20°C for a minimum of 4 h, the protein in the samples was precipitated by centrifugation at 4°C, and the supernatants were analysed by LC–MS/MS to quantify the % input test compound remaining.

[3] = tested on: HeLa cells; experiment: Intracellular Ca2+ measurement in HeLa cells with siRNA knockdown of PIEZO1/PIEZO2; assay type: cell-based, human; details: 10 μM; for Ca2+ response after PIEZO1 depletion / Ca2+ response after PIEZO2 depletion: HeLa cells; for Ca2+ response after PIEZO1 depletion: siPIEZO1; for Ca2+ response after PIEZO2 depletion: siPIEZO2
Protocol: Hela (ATCC Cat #CRM‐CCL‐2, RRID:CVCL_0030) and HEK 293 (ATCC Cat #CRL‐1573, RRID:CVCL_0045) cells were purchased from ATCC and maintained in DMEM supplemented with 10% heat‐inactivated fetal calf serum, 100 U·ml^−1 penicillin and 100 μg·ml^−1 streptomycin (Sigma‐Aldrich).
Cells were transfected using Opti‐MEM™ I Reduced Serum Medium (Thermo Fisher Scientific) and Lipofectamine 2000 (Thermo Fisher Scientific). For transfection of cells in six‐well plates, […] short‐interfering RNA (siRNA) (control siRNA [siCtrl]: Dharmacon ON‐TARGETplus Non‐targeting Control Pool, D‐001810‐10‐05; siRNA targeted to PIEZO2 expression [siPIEZO2]: Dharmacon ON‐TARGETplus SmartPool PIEZO2, L‐013925‐02‐0005; and PIEZO1: Sigma‐Aldrich, GCAAGUUCGUGCGCGGAUU[DT][DT]) and 3 μl of Lipofectamine 2000 complexed in 200 μl of Opti‐MEM were added to 0.8 ml cell culture medium per well. The culture medium was changed 4 h post transfection, and cells were used for experiments 48 h later.
as §1

O=C(O)c1ccccc1-c1nnc(SCc2c(Cl)cccc2Cl)s1 [KC157]
Peak ΔCa2+i (ΔF340/380), median fold difference compared to Yoda1 [1]: −24.4 fold

O=C(O)c1ccc(-c2nnc(SCc3c(Cl)cccc3Cl)s2)cc1 [KC159]
Peak ΔCa2+i (ΔF340/380), median fold difference compared to Yoda1 [1]: +1.8 fold
Ability to evoke intracellular Ca2+ elevation [1]: robust responses that are larger than those of Yoda1
Plasma stability [2]: good stability over 2 h
Ca2+ elevations in HeLa cells [3]: evoked Ca^2+ elevations
Ca2+ response after PIEZO1 depletion [3]: partly suppressed
Ca2+ response after PIEZO2 depletion [3]: partly suppressed

O=C([O-])c1ccc(-c2nnc(SCc3c(Cl)cccc3Cl)s2)cc1.[K+] [KC289]
Peak ΔCa2+i (ΔF340/380), median fold difference compared to Yoda1 [1]: +2.8 fold
Ability to evoke intracellular Ca2+ elevation [1]: robust responses that are larger than those of Yoda1
Plasma stability [2]: good stability over 2 h
Ca2+ elevations in HeLa cells [3]: evoked Ca^2+ elevations
Ca2+ response after PIEZO1 depletion [3]: partly suppressed
Ca2+ response after PIEZO2 depletion [3]: partly suppressed

Clc1cccc(Cl)c1CSc1nnc(-c2cnccn2)s1 [Yoda1, 2‐[5‐[[(2,6‐dichlorophenyl)methyl]thio]‐1,3,4‐thiadiazol‐2‐yl]pyrazine]
Plasma stability [2]: good stability over 2 h
Ca2+ elevations in HeLa cells [3]: evoked Ca^2+ elevations
Ca2+ response after PIEZO1 depletion [3]: partly suppressed
Ca2+ response after PIEZO2 depletion [3]: partly suppressed
